The target in assay [1] is T1, fMet-Leu-Phe receptor (Homo sapiens, UniProt P21462).
T1 sequence (P21462 whole entry): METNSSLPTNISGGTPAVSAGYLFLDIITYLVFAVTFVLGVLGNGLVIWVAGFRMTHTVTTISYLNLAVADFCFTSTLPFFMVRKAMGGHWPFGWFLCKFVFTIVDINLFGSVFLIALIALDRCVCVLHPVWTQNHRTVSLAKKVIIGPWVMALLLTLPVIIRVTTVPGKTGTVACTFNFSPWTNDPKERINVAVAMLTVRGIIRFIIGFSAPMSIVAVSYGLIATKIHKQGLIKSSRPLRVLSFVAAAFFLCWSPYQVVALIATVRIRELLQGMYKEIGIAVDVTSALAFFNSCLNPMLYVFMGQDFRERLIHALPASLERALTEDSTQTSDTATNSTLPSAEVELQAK
The assay can be described thus: cAMP Assay. On the procedure: (§1) FPR2 and FPR1 Cyclic Adenosine Monophosphate (cAMP) Assays were used to measure the activity of the compounds in this patent. FPR2 and FPR1 Cyclic Adenosine Monophosphate (cAMP) Assays. A mixture of forskolin (5 μM final for FPR2 or 10 μM final for FPR1) and IBMX (200 μM final) were added to 384-well Proxiplates (Perkin-Elmer) pre-dotted with test compounds in DMSO (1% final) at final concentrations in the range of 0.020 nM to 100 μM. Chinese Hamster Ovary cells (CHO) overexpressing human FPR1 or human FPR2 receptors were cultured in F-12 (Ham's) medium supplemented with 10% qualified FBS, 250 μg/ml zeocin and 300 μg/ml hygromycin (Life Technologies). Reactions were initiated by adding 2,000 human FPR2 cells per well or 4,000 human FPR1 cells per well in Dulbecco's PBS (with calcium and magnesium) (Life Technologies) supplemented with 0.1% BSA (Perkin-Elmer). The reaction mixtures were incubated for 30 min at room temperature. The level of intracellular cAMP was determined using the HTRF HiRange cAMP assay reagent kit (Cisbio) according to manufacturer's instruction. Solutions of cryptate conjugated anti-cAMP and d2 flurorophore-labelled cAMP were made in a supplied lysis buffer separately. Upon completion of the reaction, the cells were lysed with equal volume of the d2-cAMP solution and anti-cAMP solution.

The target of assay [2] is T2, N-formyl peptide receptor 2 (Homo sapiens, UniProt P25090).
T2 sequence (P25090 whole entry): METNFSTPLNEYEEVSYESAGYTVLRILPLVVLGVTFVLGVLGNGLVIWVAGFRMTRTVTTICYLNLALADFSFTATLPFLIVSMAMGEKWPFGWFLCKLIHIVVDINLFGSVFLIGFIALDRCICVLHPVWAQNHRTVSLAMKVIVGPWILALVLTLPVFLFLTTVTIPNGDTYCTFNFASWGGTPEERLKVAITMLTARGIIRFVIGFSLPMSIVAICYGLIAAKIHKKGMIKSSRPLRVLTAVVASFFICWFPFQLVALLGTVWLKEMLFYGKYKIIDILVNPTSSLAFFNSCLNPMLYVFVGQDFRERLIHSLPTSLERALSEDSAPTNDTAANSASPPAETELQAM
Nature of the assay: cAMP Assay. The procedure: as §1

On to `COCCn1cccc(N2C[C@@H](c3ccc(Cl)cc3)[C@H](NC(=O)NC3CCc4cc(OC)ccc4C3)C2=O)c1=O` (some centres undefined) [US20230303513, Example 55], for which the EC50 (usually the concentration needed to bring the measured effect to its halfway point) in assay [1] is over 10000 nM; in assay [2] it was 6.2 nM.

Regarding `COCC(CO)n1cccc(N2C(=O)[C@@H](NC(=O)N[C@H]3CC[C@H](C(F)F)CC3)[C@H](c3c(F)cc(OC)cc3F)[C@@H]2C)c1=O` (some centres undefined) [US20230303513, Example 63], the half-maximal effective concentration (EC50) in assay [1] was found to be 3600 nM; in assay [2], 41 nM.
